The target of data set [1] is T1, soybean lipoxygenase (Glycine max, UniProt P08170).
T1 construct: purchased Sigma Chemical, Co. (St. Louis, MO, USA)
T1 sequence (P08170 1-839): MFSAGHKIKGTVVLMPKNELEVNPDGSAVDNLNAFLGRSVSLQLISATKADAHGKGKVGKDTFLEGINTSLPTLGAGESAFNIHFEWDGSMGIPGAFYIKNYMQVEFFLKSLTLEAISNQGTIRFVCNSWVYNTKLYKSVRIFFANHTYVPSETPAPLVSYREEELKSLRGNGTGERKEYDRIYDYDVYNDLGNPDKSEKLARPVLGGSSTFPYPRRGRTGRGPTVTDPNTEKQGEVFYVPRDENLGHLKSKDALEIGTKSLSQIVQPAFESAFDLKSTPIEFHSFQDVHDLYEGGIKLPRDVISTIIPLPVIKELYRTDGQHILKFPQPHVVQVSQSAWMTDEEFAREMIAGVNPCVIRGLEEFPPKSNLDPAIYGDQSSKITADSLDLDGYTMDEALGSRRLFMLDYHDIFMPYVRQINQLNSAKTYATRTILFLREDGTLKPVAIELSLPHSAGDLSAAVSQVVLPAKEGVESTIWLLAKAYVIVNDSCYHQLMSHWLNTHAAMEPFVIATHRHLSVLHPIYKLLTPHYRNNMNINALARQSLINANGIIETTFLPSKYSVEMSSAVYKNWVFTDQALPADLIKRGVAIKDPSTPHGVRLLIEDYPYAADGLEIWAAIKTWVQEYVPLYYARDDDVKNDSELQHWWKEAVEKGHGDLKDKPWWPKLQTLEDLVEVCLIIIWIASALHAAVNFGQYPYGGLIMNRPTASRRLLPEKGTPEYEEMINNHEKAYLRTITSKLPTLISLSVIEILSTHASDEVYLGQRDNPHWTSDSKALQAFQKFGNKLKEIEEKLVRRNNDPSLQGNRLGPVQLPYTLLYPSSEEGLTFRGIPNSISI
The data set can be described thus: Soybean lipoxygenase inhibition in vitro. Format: biochemical. The protocol:
DMSO solution of the tested compound was incubated with sodium linoleate (0.1 mM) and 0.2 mL of soybean lipoxygenase solution (1/9 × 10^−4 w/v in saline) in buffer pH 9 (tris) and at room temperature. […] The results are given in Table 1 expressed as IC50 values or % inhibition at 100 μM.

Data set [2] can be described thus: Lipophilicity as RM values by RP-TLC. The conditions noted are these: methanol/water 70/30, 24 °C, average of at least five measurements. It is filed as physicochemical. The source says: Since lipophilicity is a significant physicochemical property determining distribution, bioavailability, metabolic activity and elimination, we tried to determine experimentally the lipophilicity of the new substances by a RPTLC method as RM values (Table 1) and to compare them with the corresponding theoretically calculated clog p values in n-octanol-buffer. This is considered to be a reliable, fast and convenient method for expressing lipophilicity. Lipophilicity (Table 2), was theoretically calculated as Clog p values in n-octanol-buffer by the CLOGP Programme of Biobyte Corp..
Reversed phase TLC (RP-TLC) was performed on silica gel plates impregnated with 5% (v/v) liquid paraffin in light petroleum ether. The mobile phase was a methanol/water mixture (70/30, v/v). The plates were developed in closed chromatography tanks saturated with the mobile phase at 24 °C. Spots were detected under UV light. RM values were determined from the corresponding Rf values (from five individual measurements) using the equation RM = log [(1/Rf) − 1] (Table 1).

In data set [3] the test system is esterase. The data set can be described thus: In vitro esterase activity on hybrids. It is filed as in vitro ADME. To be noted: 1 mM, phosphate buffer pH 7.8, 37 °C, 90 min and 24 h. The procedure: Representative hybrid molecules are subjected to an esterase activity in vitro. 100 μL of 1 mg/mL 0.001 N hydrochloric acid of esterase solution was added to 1,250 μL of phosphate buffer (0.1 M) pH 7.8 including the tested compounds (150 μL in DMSO, final concentration 1 mM) and incubated at 37 °C for 90 min. The incubated solution was allowed to set at room temperature. Then, the absorption was measured at 256 nm. The measurement was repeated after 24 h of incubation at 37 °C.

Data set [4] concerns the target T2, pancreatic bovine trypsin (Bos taurus, UniProt P00760).
T2 construct: purchased Sigma Chemical, Co. (St. Louis, MO, USA)
T2 sequence (P00760 24-246): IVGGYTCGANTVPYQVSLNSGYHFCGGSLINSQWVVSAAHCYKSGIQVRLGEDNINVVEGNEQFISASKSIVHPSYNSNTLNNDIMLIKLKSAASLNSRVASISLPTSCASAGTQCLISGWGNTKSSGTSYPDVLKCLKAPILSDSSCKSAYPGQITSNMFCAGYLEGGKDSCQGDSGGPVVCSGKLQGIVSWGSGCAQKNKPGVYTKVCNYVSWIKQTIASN
The data set is described as follows: Inhibition of trypsin induced proteolysis in vitro. To be noted: bovine albumin substrate, pH 7.6, 37 °C; read-out: IC50 μM Trypsin Inh. Format: biochemical. The source says: All chemicals, solvents, chemical and biochemical reagents were of analytical grade and purchased from commercial sources (Merck, Merck KGaA, Darmstadt, Germany, Fluka Sigma-Aldrich Laborchemikalien GmbH, Hannover, Germany, Alfa Aesar, Karlsruhe, Germany and Sigma, St. Louis, MO, USA). Soybean lipoxygenase, pancreatic bovine trypsin, sodium linoleate, free radical DPPH and 2,2-azinobis-2-methyl-propanimidamine HCl (AAPH) were obtained from Sigma Chemical, Co. (St. Louis, MO, USA), carrageenin, type K, was commercially available. All starting materials were obtained from commercial sources and used without further purification.
The test was carried out according to a modified Kunitz method. Bovine albumin was used as substrate for trypsin. The reaction mixture consisted of 0.075 mg/mL trypsin (200 μL) and 780 μL of phosphate buffer pH 7.6 (including the tested compounds (20 μL in DMSO, final concentration 100 μM) preincubated at 37 °C for 20 min and then 1 mL of albumin (stock solution 6 g/100 mL in phosphate buffer 0.1 M, pH 7.6) was added and incubated at 37 °C for 30 min. After the incubation 1 mL of 5% trichloroacetic acid was added to the incubated solution to stop the enzyme’s reaction and allowed to set at room temperature for 1 h. Then the solution was filtered by filter paper and the absorption of the filtered solution was measured at 280 nm. Salicylic acid was used as a reference compound (Table 1).

Data set [5] can be described thus: Inhibition of linoleic acid lipid peroxidation (AAPH). To be noted: % inhibition at 100 μM; pH 7.4, 37 °C. The procedure:
Production of conjugated diene hydroperoxide by oxidation of sodium linoleate in an aqueous dispersion is monitored at 234 nm. AAPH is used as a free radical initiator [12, 24]. Ten microlitres of the 16 mM sodium linoleate solution was added to the UV cuvette containing 930 μL of 0.05 M phosphate buffer, pH 7.4 prethermostated at 37 °C. The oxidation reaction was initiated at 37 °C under air by the addition of 40 mM AAPH solution (50 μL). Ten μL of the tested compounds were added in the mixture. Lipid oxidation was measured in the presence of the same level of DMSO. The rate of oxidation at 37 °C was monitored by recording the increase in absorption at 234 nm caused by conjugated diene hydroperoxides. The results were compared to the appropriate standard inhibitor trolox (63%) (Table 1).

Data set [6] in a line: TLC screening for free radical scavengers (DPPH). To be noted: plates sprayed with 0.1 mM DPPH ethanolic solution. The protocol: TLC was used for screening the synthesized hybrids as radical scavengers. The compound solutions in DMSO were spotted onto a silica gel F254 precoated plate and developed using […] and 95% CHCl3 as developing solvents. After development the plates were air-dried and sprayed with 0.1 mM DPPH ethanolic solution for detecting the compounds with rapid scavenging properties.
(In general: DPPH is a stable violet radical that fades when it is reduced.)

Data set [7] relates to sciatic nerve crush. The data set can be described thus: Sciatic Functional Index after sciatic nerve crush. It is filed as in vivo, Wistar rats. From the text: SFI is the current standard for measuring functional recovery following rat sciatic nerve crush. Its calculation involves the measurement of wide-ranging relationships between feet and toes of the hindlimb of recovering animals. SFI values close to −100 indicate severe damage, while SFI values close to 0 indicate normal function. The treated rats improved their walk and the relationship between feet and toes of the crushed hindlimbs starting from day 14 to day 21.
One day prior to the surgery and the behavioral testing, Wistar rats were handled by the investigators and introduced to the testing environment for a brief period of time. Rats were anesthetized with chloral hydrate 4.5% (1 mL/100 g). […] After the exposure, the nerve was crushed once for 30 s at standardized force. The muscle was reapproximated and the skin incision was closed using 6 to 0 sutures. The examination of the loss of sensory and motor function in the operated limb established the crush completeness. Digits in the operated limb were pinched with a blunt forceps. Absence of foot withdrawal and vocalization was recorded as loss of sensory and motor function. Animals were placed under a heating lamp until they recovered from the anesthesia and they returned to their home cages.
The tested solutions were freshly prepared on surgery day (day 0).
[…] The day of the surgery is considered as day 0 [36, 37, 38].
In the present study, the plantar surfaces of the hindlimbs of the rats were impregnated with ink and then the animals were allowed to walk on a paper along a corridor, leaving footprints during walking.
A wooden corridor (1 m × 8 cm) with raised sidewalls was used. Two and a half white paper strips (40 × 7.5 cm) were placed along the corridor and were fixed with adhesive tape closely together and at the base and the sidewalls of the corridor. Each rat was trained to walk steadily along the corridor without stops until it made three at least successful efforts of continuous walking. The footprints were allowed to dry and were then converted into digital images using a computer and a high resolution scanner. The image processing was done by using the ImageJ. This is an open-source image analysis software created in 1997 by Rayne Rasband (National Institute of Health), widely used in medical applications, especially neuroscience, for measuring distances and surface and plotting the data. The footprints were analyzed as described by Bain et al. in measurements were included: • (i) print length (PL): distance from the heel to the third toe, • (ii) toe spread (TS) distance from the first to the fifth toe on both sides and • (iii) intermediate toe spread (ITS) the distance between the middle of the second and fourth toe
All measurements were taken both from the experimental (EPL, ETS, EIT) and the normal (NPL, NTS, NIT) side. The formula used to calculate SFI was the following: SFI = −38.3 (EPL − NPL)/NPL + 109.5 (ETS − NTS)/NTS + 13.3 (EIT − NIT)/NIT − 8.8

Data set [8] relates to carrageenin-induced rat paw oedema. The data set is described as follows: Inhibition of the carrageenin-induced rat paw oedema. Format: in vivo, Fisher-344 rats. The conditions noted are these: 0.01 mmol/1 kg, i.p., 3.5 h after carrageenin. The procedure:
(§1) Anti-inflammatory tests were conducted on Fisher-344 inbred rats of ca. 200 g body weight whereas antinociception and motor and sensory functions after sciatic nerve crash were performed on Wistar rats. Both sexes were used. Females pregnant were excluded. Each group was composed of 6 animals. The animals, which have been bred in our laboratory, were housed under standard conditions and received a diet of commercial food pellets and water ad libitum during the maintenance. Our studies were carried out in accordance with recognised guidelines on animal experimentation.
The tested compounds 0.01 mmol/kg body weight were suspended in water with few drops of Tween 80 and ground in a mortar before use. Controls received the liquid vehicle only. All the in vivo experiments were repeated at least in triplicate and were subjected to statistic analysis using the student’s t-test.
Oedema was induced in the right hind paw of Fisher 344 rats by the intradermal injection of 0.1 mL 2% carrageenin in water. Each group was composed of 6 animals which they were entirely fasted during the experiment period. The tested compounds 0.01 mmol/kg body weight, were given intraperitoneally simultaneously with the carrageenin injection. The rats were euthanized 3.5 h after carrageenin injection. The difference between the weight of the injected and not-injected paws was calculated for each animal. The change in paw weight was compared with that in control animals (treated with water) and expressed as a percent inhibition of the oedema (ICPE % values in Table 1). Indomethacin 0.01 mmol/kg was used as reference compound. ICPE % are the mean values from two different experiments with a standard error of the mean less than 10%.

The test system of data set [9] is acetic acid-induced writhing. The data set is described as follows: Antinociceptive screen (writhing test). It is filed as in vivo, Wistar rats. To be noted: Rattus norvegicus, ip, 0.5 h, i.p. 30 min before 0.6% acetic acid, writhes counted over 30 min, read-out: % ANA (in vivo analgesic-antinociceptive activity). The protocol: as §1
[…] Controls received the liquid vehicle only. All the in vivo experiments were repeated at least in triplicate and were subjected to statistic analysis using the student’s t-test.
The writhing reflex was used. The test compounds were administered i.p. 30 min prior to the i.p. administration of 1 mL/100 g body weight of 0.6% acetic acid. […] After 5 min, the number of stretches characterized by repeated contractions of the abdominal musculature accompanied by extension of the hind limbs was counted every 5 min for the next 30 min. […] The % antinociceptive activity (a:a) was calculated as: % a:a = (n − n'/n) × 100 (a: a analgesic activity, n average number of writhes of control group, n' average number in the test group).
(In general: An intraperitoneal irritant provokes the stretching counted in writhing tests.)

The mark [10] stands for this setting: single i.p. dose 0.01 mmol/mL/kg, 8 h after surgery.

The text below walks through data of publication PMC6271731, “Multitarget Molecular Hybrids of Cinnamic Acids” (Molecules, 2014).

Where two headings read alike, the source gives them in different places. Marks after values point to notes of the source that are not given here.

Usually IC50 stands for the concentration needed to halve the response being measured.

As to `O=C(/C=C/c1cccc(Oc2ccccc2)c1)Oc1cc(=O)oc2ccccc12` [Compound 2b, (E)-2-Oxo-2H-chromen-4-yl 3-(3-phenoxyphenyl)acrylate], the IC50 in data set [1] and in [4] was 100 µM each time. Besides, the “RM (±S.D.)” value in data set [2] was −0.661± 0.008. In data set [3], the “hydrolysis of the ester group by esterase” value is reported as “hydrolyzed”. The “AAPH % (% inhibition of lipid peroxidation)” value in data set [5] turned out to be 100%.

Take `CC(Cc1ccc(O)c(O)c1)C(C)Cc1ccc(O)c(O)c1` (stereo not shown) [NDGA, nordihydroguaiaretic acid]: in data set [6], the “scavenging of DPPH (visual, TLC)” value is “white spots on a purple background”.

For the molecule `CC(=O)Nc1ccc(O)cc1` [Paracetamol, 4-acetamidophenol, reference compound], the IC50 in data set [1] (sodium linoleate 0.1 mM, tris buffer pH 9, room temperature, read-out: IC50 μM LOX Inh.) came to 82 µM. The “SFI, Day before Crash” value in data set [7] (baseline before surgery and dosing) is on record as −12. For the same molecule, in [7] (setting [10]), the “SFI, Day-1” value was −93.3; the “SFI, Day-7” value is recorded as −93.3; the “SFI, Day-14” value was −36; the “SFI, Day-21” value was −18.5. The “% ICPE (carrageenin-induced rat paw oedema inhibition)” value in [8] was 21 * %. Besides, the “% ICPE (carrageenin-induced rat paw oedema inhibition)” value in [8] (listed as paracetamol) came to 21%. Also, the “AAPH % (% inhibition of lipid peroxidation)” value in [5] is recorded as 91%. For the same molecule, the inhibition in vivo at 0.01 mmol/0.1 kg in [9] is 66%.
